Source: patent US20070249556A1, “METHOD OF TREATING INFLAMMATION” (priority 2006, published 2007)

Columns and labels:
[1] = system: neutrophils; assay: LPS model of acute pulmonary inflammation in rat; type: in vivo
Excerpt: The administration of lipopolysaccharides (LPS) from gram-negative bacteria cell walls to the lungs of rats results in a rapid increase in the total number of leukocytes in the lumen of the lungs. The increase of neutrophils in the lung in the LPS model represents the conditions present a patients with chronic respiratory diseases such as cystic fibrosis, chronic bronchitis, emphysema, and certain subtypes of asthma. The LPS model of acute pulmonary inflammation is a well-established model for testing compounds having potential activities in treating inflammatory airway diseases.
Compound 11 (35 mg/kg) or vehicle (0.5% aqueous methylcellulose) was orally administered to groups of rats 15 minutes prior to pulmonary aerosolized LPS (˜2 micrograms/rat) or placebo (air) exposure (20 minute exposure) and 2.5 and 5 hours following the initial oral administration. Eight hours after pulmonary administration of aerosolized LPS, the lungs were lavaged to obtain bronchoalveolar lavage fluid, containing accumulated leukocytes.

[2] = system: neutrophils; assay: Inhibition of neutrophil chemotaxis (Boyden type chemotaxis chamber); type: cell-based, human; details: isolated neutrophils, chemoattractant in lower chamber, one to three hours at 37 C, effective concentrations of inhibitor
Procedure: Neutrophils were isolated from peripheral blood donated by healthy volunteers. Twenty milliliters of whole blood containing ACD ([…]) as an anticoagulant was layered over twenty milliliters Ficoll-Pacque Plus (Stem Cell Technologies, Vancouver, BC) and centrifuged for 45 minutes at 1500 rpm. Following centrifugation, the red blood cell layer (also containing the granulocytes) at the bottom of the tube was retained in the centrifugation tube while the top layers were removed. The red blood cell and granulocytes were combined with an equal volume of 3% Dextran 500 (Amersham Biosciences, Uppsala, Sweden) and mixed gently. The red blood cells were allowed to sediment for 30 minutes. […] The cells were resuspended in Hank's Balanced Salt Solution (HBSS, Invitrogen, Grand Island, N.Y.), and counted on a hemacytometer. […] Cell viability was determined through trypan blue exclusion and was greater than 95%. […]
Chemoattractant compounds (e.g. fMLP) are prepared as 20 mM stock solutions and dissolved in either DMSO or water. […] The number of migrated cells is determined by microscopy and counting the number of cells per high powered field.
Inhibitors of neutrophil chemotaxis are identified using a Boyden type chemotaxis chamber. […] The number of migrated cells is determined by microscopy and counting the number of cells per high powered field.

Structure (SMILES): CCNC(=O)Nc1ncnc2c1ncn2C1OC(CCC(=O)O)C2OC(/C=C/c3ccccc3)OC21 (stereo not drawn) [Compound 11, trans-3-{6-[6-(3-ethyl-ureido)-purin-9-yl]-2-styryl-tetrahydro-furo[3,4-d][1,3]dioxol-4-yl}-propionic acid]
- number of neutrophils found in the lumen of the lungs (FIG. 1) ([1]; rats treated with compound compared with animals not receiving it, acute model of pulmonary inflammation): significant reduction
- decrease in the number of neutrophils recovered in the lavage fluid ([1]; rats, 35 mg/kg oral 15 min prior to aerosolized LPS and 2.5 and 5 hours after first dose, lavage 8 hours after LPS, vs vehicle and LPS, p<0.001): 56.6%
- number of migrated neutrophils [2]: significant decrease
